Patent US20110082130A1 (LIGAND PHARMACEUTICALS, INC., priority 2006, published 2011)

biological target: T1, chimeric human H3 receptor (Homo sapiens, UniProt Q9Y5N1); assay: Chimeric human H3 receptor GTP binding assay (agonist-stimulated GTP-gamma35S binding, Example 7); format: biochemical; settings: Table II; "*" = Ki in assay of Example 7 less than 1 micromolar
T1 construct: made in house; host or cells: Sf9 insect cells (baculovirus); P2 membrane preparation
Summary of the method: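 Sf9 membranes co-expressing chimeric human H3 receptor and heterotrimeric G-protein, 35 μg/tube, in pH 7.4 Tris buffer with 10 μM GDP. Test compounds (10^−10–10^−6 M) competed against 1 μM histamine, […] GTP-gamma35S, 60 min at room temperature. Filter-bound radioactivity counted; IC50 converted to Ki by Cheng-Prusoff. Agonism/inverse agonism tested without histamine (EC50).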

T1 sequence (Q9Y5N1 with tags, fused parts or gaps): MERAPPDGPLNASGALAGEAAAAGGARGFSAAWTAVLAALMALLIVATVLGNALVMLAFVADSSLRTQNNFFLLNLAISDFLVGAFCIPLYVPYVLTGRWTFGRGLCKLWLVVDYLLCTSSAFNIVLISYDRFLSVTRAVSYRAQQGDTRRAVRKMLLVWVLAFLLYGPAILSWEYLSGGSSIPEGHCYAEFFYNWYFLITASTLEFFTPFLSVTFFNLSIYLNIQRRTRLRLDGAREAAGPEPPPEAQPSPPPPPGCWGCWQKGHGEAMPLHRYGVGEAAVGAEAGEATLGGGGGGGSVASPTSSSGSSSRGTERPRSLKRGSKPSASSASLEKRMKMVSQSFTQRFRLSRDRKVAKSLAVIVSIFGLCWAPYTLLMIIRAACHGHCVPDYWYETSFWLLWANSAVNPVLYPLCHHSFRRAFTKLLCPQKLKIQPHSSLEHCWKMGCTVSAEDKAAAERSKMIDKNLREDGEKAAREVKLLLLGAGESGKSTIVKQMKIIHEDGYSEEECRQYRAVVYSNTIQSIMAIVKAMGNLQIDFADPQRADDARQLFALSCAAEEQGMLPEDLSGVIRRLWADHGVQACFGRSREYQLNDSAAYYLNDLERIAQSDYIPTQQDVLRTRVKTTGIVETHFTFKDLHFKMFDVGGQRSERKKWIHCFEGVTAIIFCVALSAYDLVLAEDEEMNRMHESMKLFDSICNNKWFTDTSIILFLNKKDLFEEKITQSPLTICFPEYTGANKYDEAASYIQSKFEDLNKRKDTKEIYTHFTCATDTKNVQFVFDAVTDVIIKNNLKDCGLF

Ki, < 1000 nM:
Cc1ccc(-n2cc3c(n2)CN(CC(=O)N2CCN(C4CCC4)CC2)CC3)nn1 [Compound 264, 6-[2-(4-cyclobutylpiperazin-1-yl)-2-oxoethyl]-2-(6-methylpyridazin-3-yl)-4,5,6,7-tetrahydro-2H-pyrazolo[3,4-c]pyridine]
O=C(CN1CCc2sccc2C1)N1CCN(C2CCC2)CC1 [Compound 265, 5-[2-(4-cyclobutylpiperazin-1-yl)-2-oxoethyl]-4,5,6,7-tetrahydrothieno[3,2-c]pyridine]
Cn1cc(-c2ccc3c(c2)CCN(CC(=O)N2CCN(C4CCC4)CC2)C3)cnc1=O [Compound 266, 5-{2-[2-(4-cyclobutylpiperazin-1-yl)-2-oxoethyl]-1,2,3,4-tetrahydroisoquinolin-6-yl}-1-methylpyrimidin-2(1H)-one]
O=C(CN1CCc2nn(-c3cncc(Cl)n3)cc2C1)N1CCN(C2CCC2)CC1 [Compound 267, 2-(6-chloropyrazin-2-yl)-5-[2-(4-cyclobutylpiperazin-1-yl)-2-oxoethyl]-4,5,6,7-tetrahydro-2H-pyrazolo[4,3-c]pyridine]
O=C(CN1CCc2nn(-c3cncc(N4CCCC4)n3)cc2C1)N1CCN(C2CCC2)CC1 [Compound 268, 5-[2-(4-cyclobutylpiperazin-1-yl)-2-oxoethyl]-2-(6-pyrrolidin-1-ylpyrazin-2-yl)-4,5,6,7-tetrahydro-2H-pyrazolo[4,3-c]pyridine]
O=C(CN1CCc2sc(-c3cncnc3)cc2C1)N1CCN(C2CCC2)CC1 [Compound 269, 5-[2-(4-cyclobutylpiperazin-1-yl)-2-oxoethyl]-2-pyrimidin-5-yl-4,5,6,7-tetrahydrothieno[3,2-c]pyridine]
Cn1cc(-c2cc3c(s2)CCN(CC(=O)N2CCN(C4CCC4)CC2)C3)ccc1=O [Compound 270, 5-{5-[2-(4-cyclobutylpiperazin-1-yl)-2-oxoethyl]-4,5,6,7-tetrahydrothieno[3,2-c]pyridin-2-yl}-1-methylpyridin-2(1H)-one]
N#Cc1cncc(-n2cc3c(n2)CCN(CC(=O)N2CCN(C4CCC4)CC2)C3)n1 [Compound 271, 6-{5-[2-(4-cyclobutylpiperazin-1-yl)-2-oxoethyl]-4,5,6,7-tetrahydro-2H-pyrazolo[4,3-c]pyridin-2-yl}pyrazine-2-carbonitrile]
O=C(CN1CCc2nn(-c3cncc(C4CC4)n3)cc2C1)N1CCN(C2CCC2)CC1 [Compound 272, 5-[2-(4-cyclobutylpiperazin-1-yl)-2-oxoethyl]-2-(6-cyclopropylpyrazin-2-yl)-4,5,6,7-tetrahydro-2H-pyrazolo[4,3-c]pyridine]
Cc1c2c(nn1-c1ccc(Br)cn1)CCN(CC(=O)N1CCN(C3CCC3)CC1)C2 [Compound 273, 2-(5-bromopyridin-2-yl)-5-[2-(4-cyclobutylpiperazin-1-yl)-2-oxoethyl]-3-methyl-4,5,6,7-tetrahydro-2H-pyrazolo[4,3-c]pyridine]
Cc1c2c(nn1-c1ccc(C#N)cn1)CCN(CC(=O)N1CCN(C3CCC3)CC1)C2 [Compound 274, 6-{5-[2-(4-cyclobutylpiperazin-1-yl)-2-oxoethyl]-3-methyl-4,5,6,7-tetrahydro-2H-pyrazolo[4,3-c]pyridin-2-yl}nicotinonitrile]
O=C(CN1CCc2nc(-n3cccn3)ncc2C1)N1CCN(C2CCC2)CC1 [Compound 275, 6-[2-(4-cyclobutylpiperazin-1-yl)-2-oxoethyl]-2-(1H-pyrazol-1-yl)-5,6,7,8-tetrahydropyrido[4,3-d]pyrimidine]
O=C(CN1CCc2nc(C3CC3)ncc2C1)N1CCN(C2CCC2)CC1 [Compound 276, 6-[2-(4-cyclobutylpiperazin-1-yl)-2-oxoethyl]-2-cyclopropyl-5,6,7,8-tetrahydropyrido[4,3-d]pyrimidine]
CC(C)(C)c1ncc2c(n1)CCN(CC(=O)N1CCN(C3CCC3)CC1)C2 [Compound 277, 2-tert-butyl-6-[2-(4-cyclobutylpiperazin-1-yl)-2-oxoethyl]-5,6,7,8-tetrahydropyrido[4,3-d]pyrimidine]
Cn1c(-c2ccc3c(c2)CCN(CC(=O)N2CCN(C4CCC4)CC2)C3)cccc1=O [Compound 278, 6-{2-[2-(4-cyclobutylpiperazin-1-yl)-2-oxoethyl]-1,2,3,4-tetrahydroisoquinolin-6-yl}-1-methylpyridin-2(1H)-one]
O=C(CN1CCc2nc(-c3cccnn3)sc2C1)N1CCN(C2CCC2)CC1 [Compound 279, 5-[2-(4-cyclobutylpiperazin-1-yl)-2-oxoethyl]-2-pyridazin-3-yl-4,5,6,7-tetrahydro[1,3]thiazolo [5,4-c]pyridine]
CCn1cc(-c2ccc3c(c2)CCN(CC(=O)N2CCN(C4CCC4)CC2)C3)ccc1=O [Compound 280, 5-{2-[2-(4-cyclobutylpiperazin-1-yl)-2-oxoethyl]-1,2,3,4-tetrahydroisoquinolin-6-yl}-1-ethylpyridin-2(1H)-one]
CCCn1cc(-c2ccc3c(c2)CCN(CC(=O)N2CCN(C4CCC4)CC2)C3)ccc1=O [Compound 281, 5-{2-[2-(4-cyclobutylpiperazin-1-yl)-2-oxoethyl]-1,2,3,4-tetrahydroisoquinolin-6-yl}-1-propylpyridin-2(1H)-one]

same assay, conditions: assay of Example 7; "*" in Ki of Table II

Ki, < 1000 nM:
CC(C)n1cc(-c2ccc3c(c2)CCN(CC(=O)N2CCN(C4CCC4)CC2)C3)ccc1=O [Compound 282, 5-{2-[2-(4-cyclobutylpiperazin-1-yl)-2-oxoethyl]-1,2,3,4-tetrahydroisoquinolin-6-yl}-1-isopropylpyridin-2(1H)-one]
O=C(CN1CCc2cc(-c3ccc(=O)n(CC(F)(F)F)c3)ccc2C1)N1CCN(C2CCC2)CC1 [Compound 283, 5-{2-[2-(4-cyclobutylpiperazin-1-yl)-2-oxoethyl]-1,2,3,4-tetrahydroisoquinolin-6-yl}-1-(2,2,2-trifluoroethyl)pyridin-2(1H)-one]
Cc1ccc(-n2ncc3c2CN(CC(=O)N2CCN(C4CCC4)CC2)CC3)nn1 [Compound 284, 6-[2-(4-cyclobutylpiperazin-1-yl)-2-oxoethyl]-1-(6-methylpyridazin-3-yl)-4,5,6,7-tetrahydro-1H-pyrazolo[3,4-c]pyridine]
O=C(CN1CCc2c(cnn2-c2cccnn2)C1)N1CCN(C2CCC2)CC1 [Compound 285, 5-[2-(4-cyclobutylpiperazin-1-yl)-2-oxoethyl]-1-pyridazin-3-yl-4,5,6,7-tetrahydro-1H-pyrazolo[4,3-c]pyridine]
COCc1ncc2c(n1)CCN(CC(=O)N1CCN(C3CCC3)CC1)C2 [Compound 286, 6-[2-(4-cyclobutylpiperazin-1-yl)-2-oxoethyl]-2-(methoxymethyl)-5,6,7,8-tetrahydropyrido[4,3-d]pyrimidine]
O=C(CN1CCc2nn(-c3ncc(Br)cn3)cc2C1)N1CCN(C2CCC2)CC1 [Compound 287, 2-(5-bromopyrimidin-2-yl)-5-[2-(4-cyclobutylpiperazin-1-yl)-2-oxoethyl]-4,5,6,7-tetrahydro-2H-pyrazolo[4,3-c]pyridine]
Cc1ccc(-n2ncc3c2CCN(CC(=O)N2CCN(C4CCC4)CC2)C3)nn1 [Compound 288, 5-[2-(4-cyclobutylpiperazin-1-yl)-2-oxoethyl]-1-(6-methylpyridazin-3-yl)-4,5,6,7-tetrahydro-1H-pyrazolo[4,3-c]pyridine]
Cc1cnc(-n2cc3c(n2)CCN(CC(=O)N2CCN(C4CCC4)CC2)C3)nc1 [Compound 289, 5-[2-(4-cyclobutylpiperazin-1-yl)-2-oxoethyl]-2-(5-methylpyrimidin-2-yl)-4,5,6,7-tetrahydro-2H-pyrazolo[4,3-c]pyridine]
COc1ccc(-n2ncc3c2CCN(CC(=O)N2CCN(C4CCC4)CC2)C3)nn1 [Compound 290, 5-[2-(4-cyclobutylpiperazin-1-yl)-2-oxoethyl]-1-(6-methoxypyridazin-3-yl)-4,5,6,7-tetrahydro-1H-pyrazolo[4,3-c]pyridine]
O=C(CN1CCc2c(cnn2-c2ccc(O)nn2)C1)N1CCN(C2CCC2)CC1 [Compound 291, 6-{5-[2-(4-cyclobutylpiperazin-1-yl)-2-oxoethyl]-4,5,6,7-tetrahydro-1H-pyrazolo[4,3-c]pyridin-1-yl}pyridazin-3-ol]
O=C(CN1CCc2nc(C(F)(F)F)ncc2C1)N1CCN(C2CCC2)CC1 [Compound 292, 6-[2-(4-cyclobutylpiperazin-1-yl)-2-oxoethyl]-2-(trifluoromethyl)-5,6,7,8-tetrahydropyrido[4,3-d]pyrimidine]
Cn1cc2c(n1)CCN(CC(=O)N1CCN(C3CCC3)CC1)C2 [Compound 293, 5-[2-(4-cyclobutylpiperazin-1-yl)-2-oxoethyl]-2-methyl-4,5,6,7-tetrahydro-2H-pyrazolo[4,3-c]pyridine]
O=C(CN1CCc2nc(-c3ccccc3)sc2C1)N1CCN(C2CCC2)CC1 [Compound 294, 5-[2-(4-cyclobutylpiperazin-1-yl)-2-oxoethyl]-2-phenyl-4,5,6,7-tetrahydro[1,3]thiazolo [5,4-c]pyridine]
O=C(CN1CCc2nc(-c3cccc(Cl)c3)sc2C1)N1CCN(C2CCC2)CC1 [Compound 295, 2-(3-chlorophenyl)-5-[2-(4-cyclobutylpiperazin-1-yl)-2-oxoethyl]-4,5,6,7-tetrahydro[1,3]thiazolo [5,4-c]pyridine]
O=C(CN1CCc2nc(-c3ccc(Cl)cc3)sc2C1)N1CCN(C2CCC2)CC1 [Compound 296, 2-(4-chlorophenyl)-5-[2-(4-cyclobutylpiperazin-1-yl)-2-oxoethyl]-4,5,6,7-tetrahydro[1,3]thiazolo [5,4-c]pyridine]
